Data from patent US20070203212A1, “METHOD OF TREATING OSTEOARTHRITIS” (WARNER-LAMBERT COMPANY, priority 2002, published 2007).

What was measured:
[1] = tested on: carrageenan-induced thermal hyperalgesia; test: Carrageenan-induced thermal hyperalgesia (CITH), paw withdrawal latency; format: in vivo, rat; details: single oral dose 30 mg/kg on Day 1, 4 hours post dose
Description: Male Sprague Dawley rats (200-300 g), obtained from Charles River, were housed in groups of 2 under a 12 hour light/dark cycle with food and water ad libitum. Animals were allowed to acclimate to the test room one hour prior to testing.
Thermal hyperalgesia was assessed using the rat plantar test (apparatus from Univ. California, San Diego) following a modified method of Hargreaves et al., 1988. Rats were habituated to the apparatus, which consisted of three perspex boxes that individually housed […] on an elevated glass table. A mobile radiant heat source (halogen lamp) was located under the glass table and focused onto the hind paw. Paw withdrawal latencies (PWL) were recorded in seconds (“s”). An automatic cut off point of 22.5 s was set to prevent tissue damage. The mean of 2-3 PWL was taken at each time point for both hind paws of each animal. The apparatus was calibrated to give a PWL of approximately 10 s before carrageenan administration.
After basal PWL were determined, animals receive an intraplantar 100 μL of 10 mg/mL) into the right hind paw. Lambda carrageenan (Sigma Chemical Co.) was dissolved in isotonic saline 5 minutes prior to injecting. PWL were reassessed following the same protocol 2 hours post carrageenan (this time point represented the start of peak hyperalgesia) to ascertain that hyperalgesia had developed. 6-(5-Carboxy-5-methyl-hexyloxy)-2,2-dimethyl-hexanoic acid, calcium salt was then administered orally via oral dosing needles 2.5 hours post carrageenan injection, and PWL were taken again at 30- or 60-minute intervals post drug administration for 6 hours.
Data consisted of the mean of 2-3 reads/paw for individual animals. Group data was the compiled individual means. Percent inhibition was calculated as follows for each time point: (mean drug treated−mean control)/(mean baseline−mean control)×100.

[2] = tested on: prostaglandin-F2a (PGF2a) expression; test: PGF2a expression from calcium ionophore-stimulated rat basophilic leukemia cells; format: cell-based
[3] = tested on: leukotriene B4 (LTB4) expression; test: LTB4 expression from calcium ionophore-stimulated rat basophilic leukemia cells; format: cell-based
[4] = Blood pressure in normal healthy humans; format: in vivo, human
[5] = tested on: experimental osteoarthritis (anterior cruciate ligament section); test: Experimental osteoarthritis in rabbit (EOA in Rabbit); format: in vivo; details: 30 or 10 mg/kg/dose three times per day, 8 weeks; 'if these EOA studies were performed'
Description: Normal rabbits are anaesthetized and anteromedial incisions of the right knees performed. The anterior cruciate ligaments are visualized and sectioned. The wounds are closed and the animals are housed in individual cages, exercised, and fed ad libitum. Rabbits are given either vehicle (water) or 6-(5-carboxy-5-methyl-hexyloxy)-2,2-dimethyl-hexanoic acid, calcium salt, or a pharmaceutically acceptable salt thereof, (10 rabbits per group). Each group is dosed three times per day with the 6-(5-carboxy-5-methyl-hexyloxy)-2,2-dimethyl-hexanoic acid, calcium salt, or a pharmaceutically acceptable salt thereof, group receiving 30-mg/kg/dose or 10-mg/kg/dose. The rabbits are euthanized 8 weeks after surgery and the proximal end of the tibia and the distal end of the femur are removed from each animal.
The cartilage changes on the femoral condyles and tibial plateaus are graded separately under a dissecting microscope (Stereozoom, Bausch & Lomb, Rochester, N.Y.). […] The surface area changes are measured and expressed in mm^2. […]
Representative specimens of synovial membrane from the medial and lateral knee compartments are dissected from underlying tissues. […] The average score is calculated and considered as a unit for the whole knee. […]
Mean values and SEM are calculated and statistical analysis is done using the Mann-Whitney U-test.

For `CC(C)(CCCCOCCCCC(C)(C)C(=O)[O-])C(=O)[O-].[Ca+2]` [CI-1027, 6-(5-carboxy-5-methyl-hexyloxy)-2,2-dimethyl-hexanoic acid, calcium salt], the “Inhibition of Pain (% versus control), CITH (paw withdrawal latency)” value [1] was 65 ± 20%, the “inhibition of PGF2a expression” value [2] was “does not inhibit” and the “inhibition of LTB4 expression” value [3] was “does not inhibit”. The “effect on blood pressure” value [4] was “no effect or perhaps even slightly (1-5 mmHg) decreases” and the “lesion size on tibial plateaus / cartilage damage” value [5] was “reduce the size of the lesion on the tibial plateaus”.
